Experimental data taken from article PMC4229119, “Alzheimer's Therapeutics Targeting Amyloid Beta 1–42 Oligomers II: Sigma-2/PGRMC1 Receptors Mediate Abeta 42 Oligomer Binding and Synaptotoxicity” (PLoS ONE, 2014).

Key:
[1] = tested on: caspase-3/7; test: Caspase-3/7 activation in primary hippocampal/cortical cultures; type: cell-based, rat; settings: for activation of caspase-3/7: primary hippocampal/cortical cultures
Procedure: (§1) Little is known about the functional pharmacology of ligands for the sigma-2/PGRMC1 receptor. […] Finally, we treated hippocampal and cortical cultures with ascending concentrations of SV119 to induce caspase activation, in the presence of 40 µM of each of the sigma-2/PGRMC1 antagonists CT0109, CT0093 and RHM-1 ( Fig. 8E ).

[2] = tested on: primary hippocampal/cortical cultures; test: Cell death in mature primary neuronal cultures; type: cell-based, rat
[3] = tested on: SKOV-3 human ovarian cancer cells; test: Cell death in SKOV-3 human ovarian cancer cells; type: cell-based
[4] = tested on: caspase-3/7; test: Caspase-3/7 activation in SKOV-3 tumor cell line; type: cell-based, human
[5] = tested on: caspase-3/7; test: SV119-induced caspase-3/7 activation in hippocampal and cortical cultures, co-treatment with antagonists; type: cell-based, rat; settings: for block of the activation of caspase-3/7 by SV119: 40 µM antagonist, ascending concentrations of SV119, hippocampal and cortical cultures
Procedure: as §1

[6] = tested on: sigma-2/PGRMC1; test: Immunofluorescent sigma-2/PGRMC1 expression in neuronal cultures; type: cell-based, rat; settings: for increase of total intensity of sigma-2/PGRMC1 expression in the cell body: 400 nM Abeta oligomers, pooled neurons and glia, vs vehicle
Procedure: To assess the ability of test compounds to prevent the binding of Abeta oligomers, cultures were treated with compounds for 30 minutes, followed by synthetic Abeta 1–42 oligomer preparation treatment for 60 min (total Abeta concentration 0.5 µM, equivalent to Kd concentration). Alternatively, displacement of prebound oligomers was evaluated by adding oligomers 60 min prior to the addition of compounds, followed by additional 30 minutes incubation. Cells were fixed with 3.75% formaldehyde for 15 min, blocked with 5% normal goat serum and 0.5% Triton X-100 and incubated with primary antibodies for Abeta (1 µg/ml 6E10 or 4G8, Covance catalog numbers SIG-39320 and SIG-39330, respectively), MAP-2 (0.2 µg/ml Chemicon), Synaptophysin-1 (1 µg/ml, Anaspec), glial fibrillary acidic protein (GFAP, 1 µg/ml, Thermo-Fisher) and fluorescently labeled secondary antibodies (2 µg/ml, Invitrogen). Images were acquired on a Cellomics VTi automated microscope with a 20X, 0.75 NA objective and analyzed using ThermoFisher/Cellomics Neuronal Profiling bioapplication set to measure punctate labeling of Abeta and synaptophysin-1 along MAP-2 labeled neurites. For each replicate experiment, at least 100 neurons were sampled from 4 replicate wells for each experimental condition (400 to 500 neurons per experimental condition). […]
(§2) Neuronal cultures were treated with either a mixture of 4 siRNAs targeted against PGRMC1 (GUCUAGGUCUUGGAUAAUA, GGUUUUACCUCAAAUCAGA, UUAGAAUGCAUGAUGUGUU, CUUCUAUCUGUAGUUAAAA, catalog number A-095365-00-0050) or a non-targeting sequence (UGGUUUACAUGUUUUCCUA, catalog number D-001910-03-50, Accell, ThermoFisher). siRNA were resuspended to 100 µM in RNase free water, shaken for 1.5 hours at 37°C, diluted in media and applied to cells at 1 or 2 uM for 48 hours prior to addition of Abeta oligomers for 30 minutes. Cultures were then fixed and co-immunolabeled with 6E10 antibody to detect Abeta and antibody to detect PGRMC1 as described above and analyzed via automated image processing as described above. For PGRMC1 measurements, total intensity in cell bodies was measured.

[7] = tested on: hippocampal and cortical neurons; test: Abeta binding assay (Abeta oligomer binding to synaptic puncta of cultured neurons); type: cell-based, rat
Procedure: To assess the ability of test compounds to prevent the binding of Abeta oligomers, cultures were treated with compounds for 30 minutes, followed by synthetic Abeta 1–42 oligomer preparation treatment for 60 min (total Abeta concentration 0.5 µM, equivalent to Kd concentration). Alternatively, displacement of prebound oligomers was evaluated by adding oligomers 60 min prior to the addition of compounds, followed by additional 30 minutes incubation. […]
as §2, with “measured. […]” for “measured.”

[8] = molecular target: T1, Dopamine 3 (Homo sapiens, UniProt P35462); test: Cerep panel: Dopamine 3 agonist activity; type: cell-based; settings: Cerep 0683
T1 construct: purchased Cerep/Eurofins, Inc
Procedure: (§3) Active CogRx molecules were counterscreened for activity at 100 central nervous system receptors and enzymes (including those involved in neurotransmission and synaptic plasticity) in industry-standard assays measuring radioligand binding displacement and signaling activity (assays performed at Cerep/Eurofins, Inc., Table S1). […] To determine if these compounds were capable of displacing binding to sigma-2/PGRMC1 receptors in human brain, CT0093 and CT0109 were added in increasing concentrations to serial sections of unfixed frozen cognitively normal elderly human frontal cortex in the presence of a specific radioligand for sigma-2/PGRMC1, ^125I-RHM-4 [31] ( Fig. 1 B–D ).

[9] = tested on: mouse models of Alzheimer's disease; design: method as in PMID 25390368; settings: cited from earlier work
[10] = tested on: synapses; design: method as in PMID 25390368; settings: cited from earlier work
[11] = tested on: mixed cultures of hippocampal plus cortical neurons and glia; design: method as in PMID 25390368; settings: cited from earlier work
[12] = molecular target: T2, Sigma-1 (Homo sapiens, UniProt Q99720); test: Cerep panel: Sigma-1 radioligand binding; settings: Cerep 0889
T2 construct: purchased Cerep/Eurofins, Inc. 0889
Procedure: as §3

[13] = molecular target: Na^+ Channel (site2); test: Cerep panel: Na+ Channel (site2) radioligand binding; settings: Cerep 0169
Procedure: as §3

[14] = molecular target: T3, mu opioid (Homo sapiens, UniProt P35372); test: Cerep panel: mu opioid radioligand binding; settings: Cerep 0118
T3 construct: purchased Cerep/Eurofins, Inc. 0118
Procedure: as §3

[15] = molecular target: T4, sigma-2/PGRMC1 receptors in human brain (Homo sapiens, UniProt Q5BJF2); test: Quantitative autoradiography, radioligand displacement from human frontal cortex sections; settings: serial sections of unfixed frozen cognitively normal elderly human frontal cortex; 10-10,000 nM compound; N = 4; read-out: Ki at the [125I]RHM-1 binding site, human frontal cortex
T4 construct: serial sections of unfixed frozen cognitively normal elderly human frontal cortex; from tissue; host or cells: human frontal cortex, unfixed frozen sections
Procedure: Quantitative autoradiography studies on frozen unfixed serial tissue sections from normal (N = 4) or Alzheimer's disease (N = 4) postmortem patients' neocortex were conducted and quantified according to previously published procedures [40]. [^3H](+) pentazocine was used as the radioligand for sigma-1 receptors and [^125I]RHM-1 (American Radiolabelled Chemicals, Inc.) or [^3H]DTG (1,3-Di-(2-tolyl)guanidine (Perkin Elmer) in the presence of 1 µM (+) pentazocine for sigma-2 receptors [32]. Human brain samples for these studies were obtained with written consent as previously published [40].

[16] = molecular target: T5, sigma-2/PGRMC1 receptor (Homo sapiens, UniProt Q5BJF2); test: Sigma-2 radioligand binding ([3H]DTG competition, Jurkat cell membranes; Cerep 0148); settings: homogenates of a human T cell line; mean ± S.E.M.; read-out: Ki, displacement of selective radioligand [3H]-DTG from sigma-2/PGRMC1 receptor
T5 construct: host or cells: Jurkat cell membranes
Procedure: Radioligand competition assays were performed in membranes from Jurkat cells using 5 nM [^3H]1,3-di(2-tolyl) guanidine in the presence of 1 µM (+)-pentazocine with 10 µM haloperidol to define non-specific binding.

T3 sequence (P35372 whole entry): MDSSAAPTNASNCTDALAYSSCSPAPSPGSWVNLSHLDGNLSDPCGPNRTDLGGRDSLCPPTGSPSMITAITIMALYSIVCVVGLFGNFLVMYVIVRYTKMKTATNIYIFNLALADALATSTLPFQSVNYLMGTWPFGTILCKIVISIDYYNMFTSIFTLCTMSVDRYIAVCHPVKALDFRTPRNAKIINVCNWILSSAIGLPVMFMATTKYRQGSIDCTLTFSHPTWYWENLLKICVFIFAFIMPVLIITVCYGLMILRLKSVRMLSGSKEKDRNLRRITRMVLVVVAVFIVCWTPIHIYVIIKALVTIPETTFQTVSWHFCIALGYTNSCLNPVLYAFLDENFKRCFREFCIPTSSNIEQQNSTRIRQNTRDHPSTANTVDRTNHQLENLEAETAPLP
T1 sequence (P35462 whole entry): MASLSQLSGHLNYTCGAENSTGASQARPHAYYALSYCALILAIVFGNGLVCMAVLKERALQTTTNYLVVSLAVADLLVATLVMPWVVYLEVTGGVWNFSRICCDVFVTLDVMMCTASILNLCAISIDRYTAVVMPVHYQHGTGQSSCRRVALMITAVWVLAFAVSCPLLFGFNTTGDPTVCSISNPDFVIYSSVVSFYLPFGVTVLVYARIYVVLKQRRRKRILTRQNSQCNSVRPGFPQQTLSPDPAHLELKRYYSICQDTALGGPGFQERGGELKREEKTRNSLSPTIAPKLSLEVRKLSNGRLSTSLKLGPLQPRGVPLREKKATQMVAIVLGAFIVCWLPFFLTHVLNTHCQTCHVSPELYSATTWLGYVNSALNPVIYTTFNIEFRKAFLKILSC
T2 sequence (Q99720 whole entry): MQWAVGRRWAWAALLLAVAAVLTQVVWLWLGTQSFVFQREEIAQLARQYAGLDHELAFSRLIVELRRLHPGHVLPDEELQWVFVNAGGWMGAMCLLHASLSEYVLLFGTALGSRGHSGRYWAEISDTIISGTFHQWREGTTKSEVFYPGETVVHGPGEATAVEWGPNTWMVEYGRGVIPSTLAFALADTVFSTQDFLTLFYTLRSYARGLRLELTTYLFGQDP
T5 sequence (Q5BJF2 whole entry): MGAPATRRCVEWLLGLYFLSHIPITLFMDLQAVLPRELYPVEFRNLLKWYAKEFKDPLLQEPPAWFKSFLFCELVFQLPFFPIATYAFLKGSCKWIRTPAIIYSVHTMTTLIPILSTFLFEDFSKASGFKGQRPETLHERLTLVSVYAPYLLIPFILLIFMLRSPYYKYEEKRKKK
T4 sequence (Q5BJF2 whole entry): as above

Row | Compound | activation of caspase-3/7 [1] | concentrations at which cell viability is affected [2] [µM] | concentrations at which cell viability is affected [3] [µM] | activation of caspase-3/7 [4] | block of the activation of caspase-3/7 by SV119 [5] | dose-dependent cell death [2] | dose-dependent cell death [3] | also measured
1 | COc1cc2c(cc1OC)CN(CCCCNC(=O)c1cc(C)ccc1OC)CC2 [RHM-1] | did not | > 100 | > 100 | did not | did not | – | – | –
2 | Fc1ccc(-n2cc(CCCCN3CCC4(CC3)OCc3ccccc34)c3ccccc32)cc1 [siramesine] | activated caspase-3/7 | – | – | activated caspase-3/7 | – | caused dose-dependent cell death | caused dose-dependent cell death | –
3 | Non-targeting siRNA: non-targeting sequence UGGUUUACAUGUUUUCCUA, catalog number D-001910-03-50 (further chemistry not given here) [reference compound] | – | – | – | – | – | – | – | reduction in immunocytochemically detectable sigma-2/PGRMC1 protein in neuronal cell body and synaptic puncta ([6]; siRNA 1 or 2 µM, 48 hours, vs untreated cultures): has no effect; reduction in Abeta oligomer binding ([7]; siRNA 1 or 2 µM, 48 hours, then Abeta oligomers 30 minutes, vs untreated cultures): has no effect
4 | COc1cc(CCC(C)NCc2ccc(C(F)(F)F)cc2)ccc1O (centres unmarked) [CT0109] | did not | > 100 | > 100 | did not | significantly blocked the activation of caspase-3/7 by SV119 | – | – | EC50 [8]: 4.1 µM; restoration of cognitive function [9]: restore cognitive function; restoration of synapses [10]: restore synapses to normal; reversal of Abeta oligomer-mediated trafficking deficits [11]: reverse Abeta oligomer-mediated trafficking deficits; Ki [12]: 500 nM; Ki [13]: 2000 nM; Ki [14]: 1700 nM; Ki [15]: 57 ± 23 nM; Ki [16]: 9 ± 7 nM
5 | Abeta oligomers: synthetic Abeta 1–42 oligomer preparation | – | – | – | – | – | – | – | oligomer-induced caspase activation ([1]; 21 DIV primary hippocampal and cortical neuronal cultures, 3–48 hours, up to 28 uM): unable to detect oligomer-induced caspase activation; increase of total intensity of sigma-2/PGRMC1 expression in the cell body ([6]; 24 hours): 13%; increase of total intensity of sigma-2/PGRMC1 expression in the cell body ([6]; 48 hours): 28%; Kd ([7]; specific and saturable binding, read-out: Kd, binding to a single receptor site on neuronal synaptic puncta): 518 ± 41 nM
6 | COc1ccc(C)cc1NC(=O)OC1C[C@H]2CCC[C@@H](C1)N2CCCCCCN (some centres unmarked) [SV-119] | – | – | – | – | – | caused dose-dependent cell death | caused dose-dependent cell death | activation of caspase 3/7 ([5]; 20 to 80 µM for 24 hours, hippocampal and cortical cells, p<0.05 vs control): induced the activation of caspase 3/7
